Assays:
Assay in all cases: KinaseProfiler
Format in all cases: biochemical
Settings in all cases: 10 μM, ATP near Km
NEK2 = target: T1, NEK2 (Homo sapiens, UniProt P51955)
T1 construct: purchased Millipore, Inc. (KinaseProfiler service)
Method: (§1) A representative compound (Example 15) of the invention was tested for off-target kinase activity at a concentration of 10 μM by Millipore, Inc. in their KinaseProfiler™ service against all the kinases available in their full kinase panel. The compound was run in duplicate at a concentration of ATP near the Km for each individual kinase according to Millipore's specifications. The results are shown in Table B. Data are reported as percent of control (POC) and are the average of the two replicates.

MAP3K5 = target: T2, MAP3K5 (Homo sapiens, UniProt Q99683)
T2 construct: purchased Millipore, Inc. (KinaseProfiler service)
Method: as §1

PDGFRalpha = target: T3, PDGFRalpha (Homo sapiens, UniProt P16234)
T3 construct: purchased Millipore, Inc. (KinaseProfiler service)
Method: as §1

TEC Activated = target: T4, TEC Activated (Homo sapiens, UniProt P42680)
T4 construct: purchased Millipore, Inc. (KinaseProfiler service)
Method: as §1

MST1 = target: T5, MST1 (Homo sapiens, UniProt Q13043)
T5 construct: purchased Millipore, Inc. (KinaseProfiler service)
Method: as §1

JAK2 = target: T6, JAK2 (Homo sapiens, UniProt O60674)
T6 construct: purchased Millipore, Inc. (KinaseProfiler service)
Method: as §1

AURKA = target: T7, AURKA (Homo sapiens, UniProt O14965)
T7 construct: purchased Millipore (KinaseProfiler service)
Method: as §1

Fes = target: T8, Fes (Homo sapiens, UniProt P07332)
T8 construct: purchased Millipore, Inc. (KinaseProfiler service)
Method: as §1

MELK = target: T9, MELK (Homo sapiens, UniProt Q14680)
T9 construct: purchased Millipore, Inc. (KinaseProfiler service)
Method: as §1

MRCKbeta = target: T10, MRCKbeta (Homo sapiens, UniProt Q9Y5S2)
T10 construct: purchased Millipore, Inc. (KinaseProfiler service)
Method: as §1

Ros = target: T11, Ros (Homo sapiens, UniProt P08922)
T11 construct: purchased Millipore, Inc. (KinaseProfiler service)
Method: as §1

Abl-P = target: T12, Abl-P (Homo sapiens, UniProt P00519)
T12 construct: purchased Millipore (KinaseProfiler service)
Method: as §1

IGF-1R Activated = target: T13, IGF-1R Activated (Homo sapiens, UniProt P08069)
T13 construct: purchased Millipore, Inc. (KinaseProfiler service)
Method: as §1

KIT = target: T14, KIT (Homo sapiens, UniProt P10721)
T14 construct: purchased Millipore, Inc. (KinaseProfiler service)
Method: as §1

WNK2 = target: T15, WNK2 (Homo sapiens, UniProt Q9Y3S1)
T15 construct: purchased Millipore, Inc. (KinaseProfiler service)
Method: as §1

CLK3 = target: T16, CLK3 (Homo sapiens, UniProt P49761)
T16 construct: purchased Millipore, Inc. (KinaseProfiler service)
Method: as §1

GSK3alpha = target: T17, GSK3alpha (Homo sapiens, UniProt P49840)
T17 construct: purchased Millipore, Inc. (KinaseProfiler service)
Method: as §1

AKT1 = target: T18, AKT1 (Homo sapiens, UniProt P31749)
T18 construct: purchased Millipore (KinaseProfiler service)
Method: as §1

Ron = target: T19, Ron (Homo sapiens, UniProt Q04912)
T19 construct: purchased Millipore, Inc. (KinaseProfiler service)
Method: as §1

STK33 = target: T20, STK33 (Homo sapiens, UniProt Q9BYT3)
T20 construct: purchased Millipore, Inc. (KinaseProfiler service)
Method: as §1

DDR2 = target: T21, DDR2 (Homo sapiens, UniProt Q16832)
T21 construct: purchased Millipore, Inc. (KinaseProfiler service)
Method: as §1

ALK4 = target: T22, ALK4 (Homo sapiens, UniProt P36896)
T22 construct: purchased Millipore (KinaseProfiler service)
Method: as §1

DRAK1 = target: T23, DRAK1 (Homo sapiens, UniProt Q9UEE5)
T23 construct: purchased Millipore, Inc. (KinaseProfiler service)
Method: as §1

BrSK1 = target: T24, BrSK1 (Homo sapiens, UniProt Q8TDC3)
T24 construct: purchased Millipore (KinaseProfiler service)
Method: as §1

p38delta = target: T25, p38delta (Homo sapiens, UniProt O15264)
T25 construct: purchased Millipore, Inc. (KinaseProfiler service)
Method: as §1

MuSK = target: T26, MuSK (Homo sapiens, UniProt O15146)
T26 construct: purchased Millipore, Inc. (KinaseProfiler service)
Method: as §1

FGFR3 = target: T27, FGFR3 (Homo sapiens, UniProt P22607)
T27 construct: purchased Millipore, Inc. (KinaseProfiler service)
Method: as §1

CAMK4 = target: T28, CAMK4 (Homo sapiens, UniProt Q16566)
T28 construct: purchased Millipore (KinaseProfiler service)
Method: as §1

SRPK2 = target: T29, SRPK2 (Homo sapiens, UniProt P78362)
T29 construct: purchased Millipore, Inc. (KinaseProfiler service)
Method: as §1

BTK = target: T30, BTK (Homo sapiens, UniProt Q06187)
T30 construct: purchased Millipore (KinaseProfiler service)
Method: as §1

PTK5 = target: T31, PTK5 (Homo sapiens, UniProt P42685)
T31 construct: purchased Millipore, Inc. (KinaseProfiler service)
Method: as §1

CAMK1 = target: T32, CAMK1 (Homo sapiens, UniProt Q14012)
T32 construct: purchased Millipore (KinaseProfiler service)
Method: as §1

PKCtheta = target: T33, PKCtheta (Homo sapiens, UniProt Q04759)
T33 construct: purchased Millipore, Inc. (KinaseProfiler service)
Method: as §1

PRK2 = target: T34, PRK2 (Homo sapiens, UniProt Q16513)
T34 construct: purchased Millipore, Inc. (KinaseProfiler service)
Method: as §1

ARKS = target: T35, ARKS (Homo sapiens, UniProt O60285)
T35 construct: purchased Millipore (KinaseProfiler service)
Method: as §1

Fer = target: T36, Fer (Homo sapiens, UniProt P16591)
T36 construct: purchased Millipore, Inc. (KinaseProfiler service)
Method: as §1

PhKgamma2 = target: T37, PhKgamma2 (Homo sapiens, UniProt P15735)
T37 construct: purchased Millipore, Inc. (KinaseProfiler service)
Method: as §1

Ret = target: T38, Ret (Homo sapiens, UniProt P07949)
T38 construct: purchased Millipore, Inc. (KinaseProfiler service)
Method: as §1

mTOR/FKBP12 = target: T39, mTOR/FKBP12 (Homo sapiens, UniProt P42345)
T39 construct: purchased Millipore, Inc. (KinaseProfiler service)
Method: as §1

TrkA = TrkA (Homo sapiens, UniProt P04629); design: purchased Millipore, Inc. (KinaseProfiler service)
Method: as §1

T12 sequence (P00519 27-1130 limits assumed): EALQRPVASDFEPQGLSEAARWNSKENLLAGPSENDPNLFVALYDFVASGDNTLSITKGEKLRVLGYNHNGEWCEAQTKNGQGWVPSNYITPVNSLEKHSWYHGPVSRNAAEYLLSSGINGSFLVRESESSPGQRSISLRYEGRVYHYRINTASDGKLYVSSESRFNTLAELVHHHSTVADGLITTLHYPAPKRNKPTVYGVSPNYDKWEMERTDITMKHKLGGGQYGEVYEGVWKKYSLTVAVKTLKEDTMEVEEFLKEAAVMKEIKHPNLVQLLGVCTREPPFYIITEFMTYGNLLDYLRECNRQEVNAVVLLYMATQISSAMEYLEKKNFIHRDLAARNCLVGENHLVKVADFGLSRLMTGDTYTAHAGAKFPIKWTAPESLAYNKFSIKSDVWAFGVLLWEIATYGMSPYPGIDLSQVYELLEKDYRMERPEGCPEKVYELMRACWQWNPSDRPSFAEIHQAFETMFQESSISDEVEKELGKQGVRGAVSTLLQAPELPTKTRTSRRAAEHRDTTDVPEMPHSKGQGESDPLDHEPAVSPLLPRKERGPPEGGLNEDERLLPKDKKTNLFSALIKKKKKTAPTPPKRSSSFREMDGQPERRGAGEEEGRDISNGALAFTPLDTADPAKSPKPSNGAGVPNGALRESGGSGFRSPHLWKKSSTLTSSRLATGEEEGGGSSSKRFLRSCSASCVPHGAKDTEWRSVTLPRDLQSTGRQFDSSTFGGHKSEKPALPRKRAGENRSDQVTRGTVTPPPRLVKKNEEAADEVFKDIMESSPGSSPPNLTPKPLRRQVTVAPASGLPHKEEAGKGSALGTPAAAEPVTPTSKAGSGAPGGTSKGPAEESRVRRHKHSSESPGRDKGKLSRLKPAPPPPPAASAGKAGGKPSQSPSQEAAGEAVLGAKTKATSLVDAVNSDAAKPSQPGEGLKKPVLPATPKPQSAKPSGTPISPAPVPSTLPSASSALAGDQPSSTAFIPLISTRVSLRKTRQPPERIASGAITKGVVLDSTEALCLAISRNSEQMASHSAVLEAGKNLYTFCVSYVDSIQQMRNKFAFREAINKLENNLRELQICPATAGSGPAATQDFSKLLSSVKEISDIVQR
T20 sequence (Q9BYT3 whole entry): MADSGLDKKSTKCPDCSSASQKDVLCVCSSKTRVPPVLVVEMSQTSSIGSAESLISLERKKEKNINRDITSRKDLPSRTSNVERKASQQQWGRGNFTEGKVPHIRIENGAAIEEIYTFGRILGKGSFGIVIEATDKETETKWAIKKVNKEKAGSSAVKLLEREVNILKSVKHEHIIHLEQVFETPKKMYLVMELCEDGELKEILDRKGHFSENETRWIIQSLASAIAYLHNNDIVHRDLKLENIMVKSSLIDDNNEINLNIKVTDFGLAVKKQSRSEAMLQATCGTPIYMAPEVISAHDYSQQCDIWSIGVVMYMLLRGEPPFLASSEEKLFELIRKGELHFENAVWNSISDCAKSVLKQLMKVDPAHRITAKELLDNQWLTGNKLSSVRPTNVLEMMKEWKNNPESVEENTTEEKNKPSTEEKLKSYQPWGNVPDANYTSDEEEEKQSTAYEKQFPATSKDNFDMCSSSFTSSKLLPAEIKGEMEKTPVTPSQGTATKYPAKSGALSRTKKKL
T21 sequence (Q16832 22-855): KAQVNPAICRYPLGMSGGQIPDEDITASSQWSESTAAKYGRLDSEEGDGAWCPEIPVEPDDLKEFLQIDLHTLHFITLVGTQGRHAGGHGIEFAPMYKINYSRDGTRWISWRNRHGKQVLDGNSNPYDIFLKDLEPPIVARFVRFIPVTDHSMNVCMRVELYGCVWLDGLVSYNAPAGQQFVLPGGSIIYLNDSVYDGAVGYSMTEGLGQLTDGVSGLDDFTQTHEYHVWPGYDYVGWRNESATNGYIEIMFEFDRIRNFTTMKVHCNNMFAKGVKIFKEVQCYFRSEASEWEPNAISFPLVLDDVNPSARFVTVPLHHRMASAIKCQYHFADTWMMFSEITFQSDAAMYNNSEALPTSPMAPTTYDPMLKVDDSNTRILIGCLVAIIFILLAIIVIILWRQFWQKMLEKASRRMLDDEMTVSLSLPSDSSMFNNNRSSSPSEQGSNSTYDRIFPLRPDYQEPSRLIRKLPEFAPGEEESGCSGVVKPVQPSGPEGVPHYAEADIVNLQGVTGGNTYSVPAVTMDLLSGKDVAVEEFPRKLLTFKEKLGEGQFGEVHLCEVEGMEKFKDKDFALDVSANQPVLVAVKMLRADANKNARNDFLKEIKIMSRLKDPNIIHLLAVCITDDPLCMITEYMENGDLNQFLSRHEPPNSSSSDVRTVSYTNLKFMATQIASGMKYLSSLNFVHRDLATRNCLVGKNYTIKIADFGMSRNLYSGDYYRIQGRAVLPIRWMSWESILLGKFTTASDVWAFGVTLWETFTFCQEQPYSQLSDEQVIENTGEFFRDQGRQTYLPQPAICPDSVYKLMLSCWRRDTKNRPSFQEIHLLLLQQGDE
T19 sequence (Q04912 25-1400): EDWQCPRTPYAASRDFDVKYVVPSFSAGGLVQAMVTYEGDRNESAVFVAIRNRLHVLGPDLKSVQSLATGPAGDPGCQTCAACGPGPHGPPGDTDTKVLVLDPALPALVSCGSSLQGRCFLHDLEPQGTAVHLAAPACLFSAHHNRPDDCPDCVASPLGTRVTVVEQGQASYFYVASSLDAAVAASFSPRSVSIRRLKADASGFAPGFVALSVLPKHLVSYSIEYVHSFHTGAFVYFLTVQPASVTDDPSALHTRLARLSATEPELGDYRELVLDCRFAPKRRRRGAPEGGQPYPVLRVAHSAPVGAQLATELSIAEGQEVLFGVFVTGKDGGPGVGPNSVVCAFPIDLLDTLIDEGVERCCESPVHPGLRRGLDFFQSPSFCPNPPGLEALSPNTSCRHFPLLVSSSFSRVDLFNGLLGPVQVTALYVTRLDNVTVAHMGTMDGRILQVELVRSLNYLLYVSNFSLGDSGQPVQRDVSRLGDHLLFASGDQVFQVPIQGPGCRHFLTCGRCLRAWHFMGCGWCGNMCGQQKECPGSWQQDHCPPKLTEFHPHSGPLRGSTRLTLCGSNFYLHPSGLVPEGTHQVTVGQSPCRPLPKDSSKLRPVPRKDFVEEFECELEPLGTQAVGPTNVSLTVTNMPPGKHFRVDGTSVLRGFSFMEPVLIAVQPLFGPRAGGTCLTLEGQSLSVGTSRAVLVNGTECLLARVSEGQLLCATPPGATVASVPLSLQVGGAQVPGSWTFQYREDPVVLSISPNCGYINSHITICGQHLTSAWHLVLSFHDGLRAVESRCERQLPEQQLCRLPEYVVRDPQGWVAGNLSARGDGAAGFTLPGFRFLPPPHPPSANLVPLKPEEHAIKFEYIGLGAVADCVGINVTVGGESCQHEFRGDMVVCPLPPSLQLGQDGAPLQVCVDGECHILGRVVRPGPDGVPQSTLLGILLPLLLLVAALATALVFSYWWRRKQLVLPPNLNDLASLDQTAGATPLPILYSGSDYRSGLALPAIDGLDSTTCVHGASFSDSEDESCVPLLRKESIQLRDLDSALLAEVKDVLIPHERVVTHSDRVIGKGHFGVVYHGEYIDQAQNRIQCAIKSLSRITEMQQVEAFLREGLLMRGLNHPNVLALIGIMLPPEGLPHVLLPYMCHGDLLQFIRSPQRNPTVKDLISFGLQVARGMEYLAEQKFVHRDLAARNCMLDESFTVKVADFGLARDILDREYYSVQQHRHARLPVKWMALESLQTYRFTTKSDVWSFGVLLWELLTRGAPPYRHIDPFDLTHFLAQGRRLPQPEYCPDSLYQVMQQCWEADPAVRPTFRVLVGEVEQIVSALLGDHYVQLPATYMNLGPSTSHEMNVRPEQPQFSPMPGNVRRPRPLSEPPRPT
T28 sequence (Q16566 whole entry): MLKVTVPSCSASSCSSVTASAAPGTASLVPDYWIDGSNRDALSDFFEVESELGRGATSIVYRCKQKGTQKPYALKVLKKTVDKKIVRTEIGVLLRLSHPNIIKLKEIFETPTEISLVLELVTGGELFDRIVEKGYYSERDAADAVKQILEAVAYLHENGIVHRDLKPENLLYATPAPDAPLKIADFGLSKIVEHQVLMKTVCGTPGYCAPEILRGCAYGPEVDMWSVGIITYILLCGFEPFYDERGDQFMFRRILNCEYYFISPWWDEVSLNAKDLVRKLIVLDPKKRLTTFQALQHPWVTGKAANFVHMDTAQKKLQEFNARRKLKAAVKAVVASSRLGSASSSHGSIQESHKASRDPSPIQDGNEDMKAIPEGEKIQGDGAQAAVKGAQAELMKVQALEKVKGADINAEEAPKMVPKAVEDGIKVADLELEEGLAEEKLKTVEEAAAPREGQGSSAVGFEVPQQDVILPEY
Chain of TrkA (P04629 33-796): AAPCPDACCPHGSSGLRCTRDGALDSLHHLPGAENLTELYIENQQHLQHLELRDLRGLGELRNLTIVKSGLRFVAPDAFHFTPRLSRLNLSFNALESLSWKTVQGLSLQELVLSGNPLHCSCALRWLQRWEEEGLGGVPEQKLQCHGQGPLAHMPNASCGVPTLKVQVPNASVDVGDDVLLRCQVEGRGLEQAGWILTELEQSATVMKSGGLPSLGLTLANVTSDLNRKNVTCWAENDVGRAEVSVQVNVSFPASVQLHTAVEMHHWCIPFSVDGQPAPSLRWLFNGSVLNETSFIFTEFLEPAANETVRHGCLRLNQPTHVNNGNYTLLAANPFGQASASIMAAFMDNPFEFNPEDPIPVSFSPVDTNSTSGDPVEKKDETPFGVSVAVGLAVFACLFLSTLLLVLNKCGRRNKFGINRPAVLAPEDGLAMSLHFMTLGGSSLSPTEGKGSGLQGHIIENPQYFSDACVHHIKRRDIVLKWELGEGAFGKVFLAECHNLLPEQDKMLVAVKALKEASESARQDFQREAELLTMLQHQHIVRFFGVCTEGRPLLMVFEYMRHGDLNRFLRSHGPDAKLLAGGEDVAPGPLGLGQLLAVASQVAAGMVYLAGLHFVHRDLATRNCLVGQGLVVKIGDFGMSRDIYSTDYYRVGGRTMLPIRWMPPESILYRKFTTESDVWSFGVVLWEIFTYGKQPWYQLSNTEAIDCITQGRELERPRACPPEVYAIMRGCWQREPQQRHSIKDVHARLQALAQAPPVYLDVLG

What does the source list for `COCCCc1cc(Cl)c(Cl)cc1NC(=O)Nc1c(C)c(-c2cnn(C)c2)nn1-c1ccccc1` [Example 15, 1-(4,5-dichloro-2-(3-methoxypropyl)phenyl)-3-(1′,4-dimethyl-1-phenyl-1H,1′H-[3,4′-bipyrazol]-5-yl)urea]?
Avg POC (NEK2): 88.5 POC; Avg POC (MAP3K5): 105 POC; Avg POC (PDGFRalpha): 117.5 POC; Avg POC (TEC Activated): 101.5 POC; Avg POC (MST1): 94.5 POC; Avg POC (JAK2): 111.5 POC; Avg POC (AURKA): 113.5 POC; Avg POC (Fes): 110 POC; Avg POC (MELK): 142.5 POC; Avg POC (MRCKbeta): 105.5 POC; Avg POC (Ros): 105.5 POC; Avg POC (Abl-P): 140.5 POC; Avg POC (IGF-1R Activated): 102 POC; Avg POC (KIT): 99.5 POC; Avg POC (WNK2): 122.5 POC; Avg POC (CLK3): 105 POC; Avg POC (GSK3alpha): 131 POC; Avg POC (AKT1): 120 POC; Avg POC (Ron): 108.5 POC; Avg POC (STK33): 104.5 POC; Avg POC (DDR2): 104.5 POC; Avg POC (ALK4): 113 POC; Avg POC (DRAK1): 135.5 POC; Avg POC (BrSK1): 123.5 POC; Avg POC (p38delta): 100.5 POC; Avg POC (MuSK): 100 POC; Avg POC (FGFR3): 106.5 POC; Avg POC (CAMK4): 132 POC; Avg POC (SRPK2): 113.5 POC; Avg POC (BTK): 119.5 POC; Avg POC (PTK5): 102.5 POC; Avg POC (CAMK1): 96 POC; Avg POC (PKCtheta): 105 POC; Avg POC (PRK2): 101.5 POC; Avg POC (ARKS): 97.5 POC; Avg POC (Fer): 99 POC; Avg POC (PhKgamma2): 110.5 POC; Avg POC (Ret): 91.5 POC; Avg POC (mTOR/FKBP12): 97.5 POC; Avg POC (TrkA): 0 POC

Reference: patent US9790210B2, “N-(monocyclic aryl),N'-pyrazolyl-urea, thiourea, guanidine and cyanoguanidine compounds as TrkA kinase inhibitors” (Array BioPharma Inc., priority 2012, dated 2017)
